US11633380B2, “Use of trans-[tetrachlorobis(1H-indazole)ruthenate(III)] for the treatment of cancer” (Bold Therapeutics, Inc., priority 2016, dated 2023)

Tests used:
GRP78 [1] = assay: GRP78 protein level by western blot in cell lines, unstressed or thapsigargin-stressed (Example 1); assay type: cell-based, human; details: IT-139 200 μM, 16 hours
Method: Example 1. All human primary and metastatic cell lines were maintained as described by ATCC. Cells were seeded in a 6 well plate prior to treatment with media alone (control), IT-139 (200 μM) alone, thapsigargin alone (300 nM, to induce cell stress) or IT-139 plus thapsigargin. Cell lysates were collected at 16 hours and were analyzed by western blot for anti-GRP78 antibody and normalized by GAPDH.

GRP78 mRNA [2] = assay: Quantitative real-time PCR of GRP78 transcripts in cell lines (Example 2); assay type: cell-based, human; details: IT-139 200 μM, 24 hours
Method: Example 2. All human primary and metastatic cell lines were maintained as described by ATCC. Cells were seeded in a 6 well plate prior to treatment with media alone (control), IT-139 (200 μM) alone, thapsigargin alone (300 nM, to induce cell stress) or IT-139 plus thapsigargin. Cell lysates were collected at 24 hours and total RNA was extracted. Quantitative real-time PCR analysis of GRP78 transcripts normalized to GAPDH.

CT26 cells = assay: CT26 subcutaneous syngeneic tumor model (Example 3); assay type: in vivo, mice; details: twice weekly, four doses; IT-139 30 mg/kg intravenously, RPM1-14 5 mg/kg intraperitoneally; through day 18
Method: Example 3. CT26 cells (1 million) were subcutaneously implanted in immunocompetent mice and allowed to grow until a palpable tumor was established (day 3). Groups of four mice per group were treated twice weekly with four total doses of either 1) saline, 2) IT-139 alone (KP1339, 30 mg/kg), 3) RPM1-14 (PD-1 antibody, 5 mg/kg), or 4) RPM1-14 and IT-139 (5 mg/kg and 30 mg/kg, respectively). IT-139 was administered intravenously and RPM1-14 was administered intraperitoneally. Administrations were made on the same day. Tumor volume was measured through day 18.

HCT116 cells = assay: Electron microscopic evaluation of HCT116 cells (Example 4); assay type: cell-based, human; details: IT-139 200 μM, 24 hours, versus untreated cells
Method: Example 4. HCT116 cell line was seeded one day prior to treatment according to ATCC guidelines. 24 hours after treatment with IT-139 (200 μM), treated and untreated cells were fixed for electron microscopic evaluation.

Pol II promoter = assay: ChIP assay, Polymerase II binding to Pol II promoter in HCT116 cells (Example 5); assay type: cell-based, human; details: 200 μM IT-139, 16 hours
Method: (§1) Example 5. Chromatin immunoprecipitation (ChIP) assay was performed to examine Polymerase II binding to Pol II and GRP78 promoter regions in stressed and unstressed cells with IT-139 treatment. HCT116 cells were grown to 80% confluence then treated with 1.5 μg/mL tunicamycin and 200 μM IT-139 or DMSO for 16 hours. Chromatin was cross-linked using formaldehyde. Cells were harvested with trypsin and isolated nuclei were sonicated to yield fragments between 200-1000 bp. Equal amounts of chromatin were incubated with anti-Pol II antibody overnight then pulled down with Staph A cells. Cross-linking was reversed and the DNA was purified using a GeneElute PCR cleanup kit from Sigma. Purified DNA and input samples were subjected to 30 cycles of PCR with primers amplifying promoter regions of Grp78 and Pol II. The products were run on a 4% agarose gel and visualized with ethidium bromide staining. […] Strikingly, IT-139 dropped Polymerase II binding to the Grp78 promoter to zero in both non-stressed and Tu-stressed cells.

Grp78 promoter = assay: ChIP assay, Polymerase II binding to Grp78 promoter in HCT116 cells (Example 5); assay type: cell-based, human; details: 200 μM IT-139, 16 hours
Method: as §1

GRP78 [3] = assay: Immunohistochemical analysis of GRP78 in HT-29 xenograft tumors (Example 6); assay type: in vivo; details: IT-139 30 mg/kg (q4d), versus strong immunostaining in saline treated tumors
Method: Example 6. Immunohistochemical analysis was performed to analyze the expression of GRP78 in HT-29 xenograft tumors treated with IT-139 at 30 mg/kg (q4d) in comparison to saline treated tumors.

GRP78 [4] = assay: GRP78 levels by western blot in normal embryonic kidney 293T cells (Example 7); assay type: cell-based, human
Method: Example 7. Normal human embryonic kidney 293T cells were either non-stressed (treated with normal media) or stressed (treated with 300 nM EndRet stress & GRP78 inducer Thapsigargin). Cell cultures were either treated with no drug (control) or 200 μM IT-139. GRP78 levels assayed by western blot; β-actin is loading control.

GRP78 mRNA [5] = assay: Northern blot of GRP78 mRNA in LnCaP-FGC cells (Example 8); assay type: cell-based, human; details: untreated or 300 nM thapsigargin, indicated concentrations of IT-139
Method: Example 8. Prostate cancer LnCaP-FGC cells were untreated (DMSO only control) or treated with 300 nM thapsigargin (Tg). Cells were co-incubated with the indicated concentrations of IT-139 and Northern blot analysis was performed on cell lysates. β-actin is the loading control.

HCT116 = assay: Mitochondrial potential, JC-1 flow cytometry, HCT116 (Example 9); assay type: cell-based, human; details: HCT116, 50 μM IT-139, 24 h
Method: (§2) Example 9. All human primary and metastatic cell lines were maintained as described by ATCC. All cell lines (HCT116, HT-29, LNCaP, A549 and A375) were seeded in a 6 well plate 24 hours prior to treatment with IT-139 alone. All cell lines were treated with 30 uM, 50 uM, 100 uM and 200 uM with the following exceptions: treatment with 30 uM and 200 uM were omitted for HCT116 and HT29 cell lines respectively. After 24 h incubation with the drug, cells were trypsinized and re-suspended in warm PBS and stained with the JC-1 dye for 30 min at 37 C in the dark. The cells were then washed and re-suspended in warm PBS. The fluorescence of the JC-1 dye was measured by flow cytometry analysis by exciting the dye at 488 nm and detecting the JC-1 monomer through its emission at 530 nm with aggregates of JC-1 being measured at 580 nm. All cell lines treated with Antimycin A at 50 uM as positive control.

HT29 = assay: Mitochondrial potential, JC-1 flow cytometry, HT29 (Example 9); assay type: cell-based, human; details: HT29, 30 μM IT-139, 24 h
Method: as §2

LNCaP = assay: Mitochondrial potential, JC-1 flow cytometry, LNCaP (Example 9); assay type: cell-based, human; details: prostate (LNCaP), 30-200 uM IT-139, 24 h
Method: as §2

A549 = assay: Mitochondrial potential, JC-1 flow cytometry, A549 (Example 9); assay type: cell-based, human; details: lung (A549), 30-200 uM IT-139, 24 h
Method: as §2

A375 = assay: Mitochondrial potential, JC-1 flow cytometry, A375 (Example 9); assay type: cell-based, human; details: melanoma (A375), 30-200 uM IT-139, 24 h
Method: as §2

[6] = test system: normal peripheral blood mononuclear cells (PBMCs); assay: Cell viability, MiaPaca2 cells co-cultured with normal PBMCs (Example 10); assay type: cell-based; details: IT-139 50, 100 and 200 μM, 24 h, co-culture with normal PBMCs
Method: Example 10. […] cancer cell line, MiaPaca2, was maintained as described by ATCC. […] […] PBMCs were activated using 6000 IU of IL-2 for 24 h.

MiaPaca2 cells = assay: Cell death of MiaPaca2 cells co-cultured with IL-2 activated PBMCs (Example 10); assay type: cell-based; details: pre-treated with IT-139 100 μM, co-cultured with PBMCs activated with 6000 IU IL-2 for 24 h
Method: Example 10. […] cancer cell line, MiaPaca2, was maintained as described by ATCC. […] MiaPaca2 cells were either untreated or pre-treated with IT-139 (100 μM) and co-cultured with IL-2 activated PBMCs at varying doses. PBMCs were activated using 6000 IU of IL-2 for 24 h.

GRP78 [7] = assay: GRP78 expression in ASPC20 cells, order of dosing thapsigargin and IT-139 (Example 11); assay type: cell-based; details: 30 hours
Method: FIG. 12 depicts expression of GRP78 protein levels treated with DMSO; 150 μM IT-139; 1 μM Thapsigargin (Tg); simultaneous treatment of 150 μM IT-139 and 1 μM Tg; 1 μM Tg treated for 6 hours followed by 150 μM IT-139 for 24 hours; and […] IT-139 for 24 hours followed by […] Tg treatment for 24 hours for lanes 1-5, respectively. Lanes 6-12 are the same treatments incubated for a further 24 hours.
Example 11. […] In vitro ASPC20 cells are treated for 48 hours with DMSO (control), 150 μM IT-139, 5 μM gemcitabine, simultaneous 150 μM IT-139 and 5 μM gemcitabine, 5 μM gemcitabine for 24 hours followed by 150 μM IT-139, or 150 μM IT-139 followed by 24 hrs 5 μM gemcitabine. Cells are harvested and counted by trypan blue to calculate the number of dead cells versus viable cells. […] PANC-1 cells are treated in vitro for 48 hours with DMSO (control), 150 μM IT-139, 5 μM gemcitabine, simultaneous 150 μM IT-139 and 5 μM gemcitabine, 5 μM gemcitabine for 24 hours followed by 150 μM IT-139, and 150 μM IT-139 followed by 24 hours 5 μM gemcitabine.

[8] = test system: UPR (XBP-1 spliced form, ATF6, eIF2a); assay: Effect on other arms of the UPR; assay type: cell-based
[9] = test system: GRP78 promoter fragment (−169 to −29; contains 3 ERSEs); assay: GRP78 promoter fragment luciferase reporter; assay type: cell-based
tumor types = assay: Preclinical anti-tumor and combination studies
[10] = stressed cells (thapsigargin 300 nM)
[11] = Tu-stressed HCT116 cells (1.5 μg/mL tunicamycin)

SMILES: [Cl][Ru-]([Cl])([Cl])[Cl].[Na+].c1ccc2[nH]ncc2c1.c1ccc2[nH]ncc2c1 [IT-139, sodium trans-[tetrachlorobis(1H-indazole)ruthenate(III)]]
- effect on GRP78 protein (western blot, normalized by GAPDH) (GRP78 [1]; [10]): decreased the amount of GRP78
- effect on GRP78 protein (western blot, normalized by GAPDH) (GRP78 [1]; unstressed cells): little to no effect
- effect on GRP78 mRNA expression (qRT-PCR, normalized to GAPDH) (GRP78 mRNA [2]; [10]): decreased the amount of GRP78 mRNA expression
- effect on grp78 mRNA levels (qRT-PCR, normalized to GAPDH) (GRP78 mRNA [2]; unstressed cells): little impact
- anti-tumor activity (tumor volume) (CT26 cells): demonstrated anti-tumor activity
- cell morphology by electron microscopy (HCT116 cells): significant vacuolization, ER expansion and disorganization of intracellular organelles
- Polymerase II binding to the Pol II promoter, reduced to (Pol II promoter; [11]): 40%
- Polymerase II binding to the Pol II promoter (Pol II promoter; non-stressed HCT116 cells): minimal effect
- Polymerase II binding to the Grp78 promoter, dropped to (Grp78 promoter; [11]): zero
- Polymerase II binding to the Grp78 promoter, dropped to (Grp78 promoter; non-stressed HCT116 cells): zero
- GRP78 immunostaining of tumors (GRP78 [3]): very weak staining
- effect on basal GRP78 levels (GRP78 [4]; non-stressed normal cells): does not effect the basal GRP78 levels
- effect on GRP78 up-regulation due to stress (GRP78 [4]; stressed normal cells): does not effect GRP78 up-regulation due to stress
- suppression of GRP78 at the transcriptional level (Northern blot, normalized against β-actin) (GRP78 mRNA [5]): dose dependent manner
- mitochondrial potential (JC-1) (HCT116): increased loss of mitochondrial potential
- mitochondrial potential (JC-1) (HT29): increased loss of mitochondrial potential
- mitochondrial potential (JC-1) (LNCaP): increase in mitochondrial depolarization at high concentrations
- mitochondrial potential (JC-1) (A549): increase in mitochondrial depolarization at high concentrations
- mitochondrial potential (JC-1) (A375): increase in mitochondrial depolarization at high concentrations
- cell viability [6]: did not show any effect upon cell viability
- cell death in MiaPaca2 cells (MiaPaca2 cells): increased cell death
- effect of order of dosing with thapsigargin (Tg) on GRP78 expression (GRP78 [7]): affects levels of GRP78 expression
- effect on other arms of the UPR (induction XBP-1 spliced form; induction, processing and nuclear import of ATF6; phosphorylation of eIF2a) [8]: does not block other arms of the UPR
- stress-induction of GRP78 promoter fragment linked to luciferase reporter gene [9]: suppress stress-induction
- synergy in combination with other anti-cancer drugs (tumor types; all different classes of anti-cancer drugs tested to date): marked synergy
- anti-tumor activity in preclinical studies (tumor types; including tumor types resistant to standard anti-cancer agents): activity against a broad range of tumor types
